In patent US9475814B2, “Chiral N-acyl-5,6,7(8-substituted)-tetrahydro-[1,2,4]triazolo[4,3-a]pyrazines as selective NK-3 receptor antagonists, pharmaceutical composition, methods for use in NK-3 receptor mediated disorders and chiral synthesis thereof” (Euroscreen S.A., priority 2011, dated 2016):
Where two headings read alike, the source gives them in different places.

Tests used:
human NK-3 receptor [1] = target: T1, human NK-3 receptor (Homo sapiens (Human), UniProt P29371); experiment: Aequorin functional assay with human NK-3 receptor (antagonist testing vs NKA); format: cell-based; conditions: inhibition of NKA (3 nM, EC80) response, CHO cells expressing human NK3 receptor and apoaequorin
T1 sequence (P29371 whole entry): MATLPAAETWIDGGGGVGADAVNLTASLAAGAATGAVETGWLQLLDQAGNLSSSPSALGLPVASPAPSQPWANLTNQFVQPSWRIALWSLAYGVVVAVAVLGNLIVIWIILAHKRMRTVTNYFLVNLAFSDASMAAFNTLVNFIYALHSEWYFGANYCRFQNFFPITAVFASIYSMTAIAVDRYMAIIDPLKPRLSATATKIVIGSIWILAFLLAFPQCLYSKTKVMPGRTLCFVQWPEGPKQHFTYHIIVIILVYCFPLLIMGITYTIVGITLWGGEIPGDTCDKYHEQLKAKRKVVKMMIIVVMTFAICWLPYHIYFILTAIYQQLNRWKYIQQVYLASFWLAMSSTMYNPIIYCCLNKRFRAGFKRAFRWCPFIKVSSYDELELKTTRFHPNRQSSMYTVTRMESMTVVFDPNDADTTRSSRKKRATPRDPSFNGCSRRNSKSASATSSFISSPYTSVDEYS

human NK-3 receptor [2] = target: T1, human NK-3 receptor; experiment: 3H-SB222200 binding competition assay with human NK-3 receptor
Protocol: ^3H-SB222200 Binding Competition Assay with Human NK-3 Receptor
The membranes were incubated with 5 nM ^3H-SB222200(ARC) in a HEPES 25 mM/NaCl 0.1M/CaCl2 1 mM/MgCl2 5 Mm/BSA 0.5%/Saponin 10 μg/ml buffer at pH 7.4 and various concentrations of compounds of the invention. The amount of ^3H-SB222200 bound to the receptor was determined after filtration by the quantification of membrane associated radioactivity using the TopCount-NXT reader (Packard).

human NK1 receptor = human NK1 receptor (Homo sapiens (Human), UniProt P25103); experiment: Human NK1 [3H] substance P binding assay (selectivity)
human NK1 receptor, sequence (P25103 whole entry): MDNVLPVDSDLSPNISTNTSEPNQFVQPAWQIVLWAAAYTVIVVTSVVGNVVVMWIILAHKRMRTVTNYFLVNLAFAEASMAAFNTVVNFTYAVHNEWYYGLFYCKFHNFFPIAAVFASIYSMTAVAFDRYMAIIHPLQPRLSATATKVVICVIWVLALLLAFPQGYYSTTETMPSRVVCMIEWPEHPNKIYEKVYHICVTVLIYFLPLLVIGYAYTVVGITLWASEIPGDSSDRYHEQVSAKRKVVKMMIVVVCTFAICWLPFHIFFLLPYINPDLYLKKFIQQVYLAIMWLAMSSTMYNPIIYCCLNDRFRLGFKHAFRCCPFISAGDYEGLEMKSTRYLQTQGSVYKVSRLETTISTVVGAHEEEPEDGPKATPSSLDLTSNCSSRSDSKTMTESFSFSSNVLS

human NK2 receptor = human NK2 receptor (Homo sapiens (Human), UniProt P21452); experiment: Human NK2 [125I]-Neurokinin A binding assay (selectivity)
human NK2 receptor, sequence (P21452 whole entry): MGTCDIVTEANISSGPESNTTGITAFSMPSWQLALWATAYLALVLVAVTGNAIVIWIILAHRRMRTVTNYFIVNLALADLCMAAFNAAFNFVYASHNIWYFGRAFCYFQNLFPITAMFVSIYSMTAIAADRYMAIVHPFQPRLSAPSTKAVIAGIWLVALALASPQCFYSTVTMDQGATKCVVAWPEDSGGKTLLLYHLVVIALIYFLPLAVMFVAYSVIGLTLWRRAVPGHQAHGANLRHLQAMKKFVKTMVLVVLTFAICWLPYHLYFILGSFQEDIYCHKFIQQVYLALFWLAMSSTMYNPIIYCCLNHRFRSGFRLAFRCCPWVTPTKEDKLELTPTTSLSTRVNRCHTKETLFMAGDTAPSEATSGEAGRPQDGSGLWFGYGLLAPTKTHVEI

hERG channel = hERG channel (Homo sapiens (Human), UniProt Q12809); experiment: hERG inhibition assay (manual patch-clamp, HEK 293 cells)
hERG channel, sequence (Q12809 whole entry): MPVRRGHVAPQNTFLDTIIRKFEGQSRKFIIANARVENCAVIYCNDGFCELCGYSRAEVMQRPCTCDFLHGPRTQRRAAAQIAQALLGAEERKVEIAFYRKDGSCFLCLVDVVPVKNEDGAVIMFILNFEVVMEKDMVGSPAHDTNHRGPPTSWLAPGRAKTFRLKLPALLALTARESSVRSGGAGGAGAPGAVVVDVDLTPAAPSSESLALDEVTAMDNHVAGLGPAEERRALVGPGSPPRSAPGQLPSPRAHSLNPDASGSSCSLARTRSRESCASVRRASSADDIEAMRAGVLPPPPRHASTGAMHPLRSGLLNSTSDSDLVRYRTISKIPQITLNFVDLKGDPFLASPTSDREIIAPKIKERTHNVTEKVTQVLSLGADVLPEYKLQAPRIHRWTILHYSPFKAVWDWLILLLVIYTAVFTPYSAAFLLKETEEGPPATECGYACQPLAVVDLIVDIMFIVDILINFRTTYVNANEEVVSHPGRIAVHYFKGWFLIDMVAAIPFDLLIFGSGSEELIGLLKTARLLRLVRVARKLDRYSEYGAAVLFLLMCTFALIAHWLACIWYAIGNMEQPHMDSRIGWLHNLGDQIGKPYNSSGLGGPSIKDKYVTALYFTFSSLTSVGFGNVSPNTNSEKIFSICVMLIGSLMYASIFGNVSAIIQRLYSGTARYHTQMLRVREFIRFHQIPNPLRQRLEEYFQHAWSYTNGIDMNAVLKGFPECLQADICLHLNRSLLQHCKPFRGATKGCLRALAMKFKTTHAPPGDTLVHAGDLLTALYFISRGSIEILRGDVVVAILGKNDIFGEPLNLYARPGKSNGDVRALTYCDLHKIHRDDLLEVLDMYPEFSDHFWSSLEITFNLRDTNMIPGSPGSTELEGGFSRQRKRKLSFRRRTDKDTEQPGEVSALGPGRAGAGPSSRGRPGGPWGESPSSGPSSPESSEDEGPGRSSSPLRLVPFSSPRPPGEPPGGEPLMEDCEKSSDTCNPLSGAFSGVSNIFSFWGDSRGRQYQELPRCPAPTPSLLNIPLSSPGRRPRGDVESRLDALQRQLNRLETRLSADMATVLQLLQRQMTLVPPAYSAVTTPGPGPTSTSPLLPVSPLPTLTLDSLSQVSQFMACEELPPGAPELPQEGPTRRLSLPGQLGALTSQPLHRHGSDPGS

[3] = Table 6, membranes of CHO cells expressing human NK3 receptor, 5 nM 3H-SB222200, read-out: Ki
[4] = Table 7, human NK-3 receptor, read-out: NK3 Ki
[5] = read-out: NK1 Ki, CHO membranes, 2 nM [3H] substance P
[6] = read-out: NK2 Ki, CHO membranes, 0.1 nM [125I]-Neurokinin A
[7] = read-out: NK1 Ki, for the racemate, value measured for the racemate of the numbered compound
[8] = read-out: NK2 Ki, for the racemate, value measured for the racemate of the numbered compound

SMILES	IC50 (human NK-3 receptor [1]) [nM]	Ki (human NK-3 receptor [2]; [3]) [nM]	also measured
Cc1nc(-c2nnc3n2CCN(C(=O)c2ccc(-c4ccccc4)cc2)[C@@H]3C)cs1 [Compound 2, (R)-[1,1′-biphenyl]-4-yl(8-methyl-3-(2-methylthiazol-4-yl)-5,6-dihydro-[1,2,4]triazolo[4,3-a]pyrazin-7(8H)-yl)methanone]	28	26	–
Cc1nc(-c2nnc3n2CCN(C(=O)c2ccc(-c4cccs4)cc2)C3)cs1 [Compound 3, (3-(2-methylthiazol-4-yl)-5,6-dihydro-[1,2,4]triazolo[4,3-a]pyrazin-7(8H)-yl)(4-(thiophen-2-yl)phenyl)methanone]	83	83	Ki (human NK-3 receptor [2]; [4]): 83 nM; Ki (human NK1 receptor; [5]): > 10 µM; Ki (human NK2 receptor; [6]): > 10 µM; IC50 (hERG channel): 26 µM
O=C(c1ccc(-c2cccs2)cc1)N1CCn2c(nnc2-c2csc(C(F)(F)F)n2)C1 [Compound 4, (4-(thiophen-2-yl)phenyl)(3-(2-(trifluoromethyl)thiazol-4-yl)-5,6-dihydro-[1,2,4]triazolo[4,3-a]pyrazin-7(8H)-yl)methanone]	50	56	IC50 (hERG channel): > 30 µM
CCc1nc(-c2nnc3n2CCN(C(=O)c2ccc(-c4cccs4)cc2)[C@@H]3C)cs1 [Compound 5, (R)-(3-(2-ethylthiazol-4-yl)-8-methyl-5,6-dihydro-[1,2,4]triazolo[4,3-a]pyrazin-7(8H)-yl)(4-(thiophen-2-yl)phenyl)methanone]	3	5	–
CCc1nc(-c2nnc3n2CCN(C(=O)c2ccc(-c4ccccc4)cc2)[C@@H]3C)cs1 [Compound 6, (R)-[1,1′-biphenyl]-4-yl(3-(2-ethylthiazol-4-yl)-8-methyl-5,6-dihydro-[1,2,4]triazolo[4,3-a]pyrazin-7(8H)-yl)methanone]	10	11	–
C=Cc1nc(-c2nnc3n2CCN(C(=O)c2ccc(-c4cccs4)cc2)[C@@H]3C)cs1 [Compound 7, (R)-(8-methyl-3-(2-vinylthiazol-4-yl)-5,6-dihydro-[1,2,4]triazolo[4,3-a]pyrazin-7(8H)-yl)(4-(thiophen-2-yl)phenyl)methanone]	3	4	–
C=Cc1nc(-c2nnc3n2CCN(C(=O)c2ccc(-c4ccccc4)cc2)[C@@H]3C)cs1 [Compound 8, (R)-[1,1′-biphenyl]-4-yl(8-methyl-3-(2-vinylthiazol-4-yl)-5,6-dihydro-[1,2,4]triazolo[4,3-a]pyrazin-7(8H)-yl)methanone]	7	7	–
C=Cc1nc(-c2nnc3n2CCN(C(=O)c2ccc(-c4cccs4)cc2)C3)cs1 [Compound 9, (4-(thiophen-2-yl)phenyl)(3-(2-vinylthiazol-4-yl)-5,6-dihydro-[1,2,4]triazolo[4,3-a]pyrazin-7(8H)-yl)methanone]	18	19	–
C=Cc1nc(-c2nnc3n2CCN(C(=O)c2ccc(-c4ccccc4)cc2)C3)cs1 [Compound 10, [1,1′-biphenyl]-4-yl(3-(2-vinylthiazol-4-yl)-5,6-dihydro-[1,2,4]triazolo[4,3-a]pyrazin-7(8H)-yl)methanone]	20	36	–
Cc1nc(-c2nnc3n2CCN(C(=O)c2ccc(-c4ccccc4)cc2)[C@@H]3C)co1 [Compound 12, (R)-[1,1′-biphenyl]-4-yl(8-methyl-3-(2-methyloxazol-4-yl)-5,6-dihydro-[1,2,4]triazolo[4,3-a]pyrazin-7(8H)-yl)methanone]	58	70	–
CC(C)c1nc(-c2nnc3n2CCN(C(=O)c2ccc(-c4cccs4)cc2)[C@@H]3C)co1 [Compound 13, (R)-(3-(2-isopropyloxazol-4-yl)-8-methyl-5,6-dihydro-[1,2,4]triazolo[4,3-a]pyrazin-7(8H)-yl)(4-(thiophen-2-yl)phenyl)methanone]	2	3	–
CC(C)c1nc(-c2nnc3n2CCN(C(=O)c2ccc(-c4cccs4)cc2)C3)co1 [Compound 14, (3-(2-isopropyloxazol-4-yl)-5,6-dihydro-[1,2,4]triazolo[4,3-a]pyrazin-7(8H)-yl)(4-(thiophen-2-yl)phenyl)methanone]	47	42	–
C[C@@H]1c2nnc(-c3coc(C4CC4)n3)n2CCN1C(=O)c1ccc(-c2cccs2)cc1 [Compound 15, (R)-(3-(2-cyclopropyloxazol-4-yl)-8-methyl-5,6-dihydro-[1,2,4]triazolo[4,3-a]pyrazin-7(8H)-yl)(4-(thiophen-2-yl)phenyl)methanone]	9	11	–
Cc1nc(-c2nnc3n2CCN(C(=O)c2ccc(-c4cccs4)cc2)[C@@H]3C)c(C)s1 [Compound 16, (R)-(3-(2,5-dimethylthiazol-4-yl)-8-methyl-5,6-dihydro-[1,2,4]triazolo[4,3-a]pyrazin-7(8H)-yl)(4-(thiophen-2-yl)phenyl)methanone]	30	32	–
C[C@@H]1c2nnc(-c3csc(N(C)C)n3)n2CCN1C(=O)c1ccc(-c2cccs2)cc1 [Compound 17, (R)-(3-(2-(dimethylamino)thiazol-4-yl)-8-methyl-5,6-dihydro-[1,2,4]triazolo[4,3-a]pyrazin-7(8H)-yl)(4-(thiophen-2-yl)phenyl)methanone]	7	7	Ki (human NK-3 receptor [2]; [4]): 7 nM; Ki (human NK1 receptor; [7]): 6.06 µM; Ki (human NK2 receptor; [8]): 9.95 µM
CC(C)c1nc(-c2nnc3n2CCN(C(=O)c2ccc(-c4cccs4)cc2)C3)cs1 [Compound 18, (3-(2-isopropylthiazol-4-yl)-5,6-dihydro-[1,2,4]triazolo[4,3-a]pyrazin-7(8H)-yl)(4-(thiophen-2-yl)phenyl)methanone]	10	20	–
Cc1csc(-c2nnc3n2CCN(C(=O)c2ccc(-c4ccccc4)cc2)[C@@H]3C)n1 [Compound 20, (R)-[1,1′-biphenyl]-4-yl(8-methyl-3-(4-methylthiazol-2-yl)-5,6-dihydro-[1,2,4]triazolo[4,3-a]pyrazin-7(8H)-yl)methanone]	11	12	–
Cc1csc(-c2nnc3n2CCN(C(=O)c2ccc(-c4ccccc4)cc2)C3)n1 [Compound 21, [1,1′-biphenyl]-4-yl(3-(4-methylthiazol-2-yl)-5,6-dihydro-[1,2,4]triazolo[4,3-a]pyrazin-7(8H)-yl)methanone]	33	38	–
Cc1nc(-c2nnc3n2CCN(C(=O)c2ccc(-c4cccs4)cc2)[C@@H]3C)sc1C [Compound 22, (R)-(3-(4,5-dimethylthiazol-2-yl)-8-methyl-5,6-dihydro-[1,2,4]triazolo[4,3-a]pyrazin-7(8H)-yl)(4-(thiophen-2-yl)phenyl)methanone]	21	21	IC50 (hERG channel): 12 µM
Cc1noc(-c2nnc3n2CCN(C(=O)c2ccc(-c4cccs4)cc2)[C@@H]3C)n1 [Compound 23, (R)-(8-methyl-3-(3-methyl-1,2,4-oxadiazol-5-yl)-5,6-dihydro-[1,2,4]triazolo[4,3-a]pyrazin-7(8H)-yl)(4-(thiophen-2-yl)phenyl)methanone]	–	–	inhibition at 10 µM (human NK1 receptor; read-out: NK1 % inhibition at 10 μM, for the racemate): < 10%; Ki (human NK1 receptor; [7]): > 10 µM; inhibition at 10 µM (human NK2 receptor; read-out: NK2 % inhibition at 10 μM, for the racemate): < 25%; Ki (human NK2 receptor; [8]): > 10 µM
CC(C)c1nsc(-c2nnc3n2CCN(C(=O)c2ccc(-c4cccs4)cc2)[C@@H]3C)n1 [Compound 25, (R)-(3-(3-isopropyl-1,2,4-thiadiazol-5-yl)-8-methyl-5,6-dihydro-[1,2,4]triazolo[4,3-a]pyrazin-7(8H)-yl)(4-(thiophen-2-yl)phenyl)methanone]	3	3	–
Cc1coc(-c2nnc3n2CCN(C(=O)c2ccc(-c4cccs4)cc2)[C@@H]3C)n1 [Compound 26, (R)-(8-methyl-3-(4-methyloxazol-2-yl)-5,6-dihydro-[1,2,4]triazolo[4,3-a]pyrazin-7(8H)-yl)(4-(thiophen-2-yl)phenyl)methanone]	12	–	–
Cc1coc(-c2nnc3n2CCN(C(=O)c2ccc(-c4ccccc4)cc2)[C@@H]3C)n1 [Compound 27, (R)-[1,1′-biphenyl]-4-yl(8-methyl-3-(4-methyloxazol-2-yl)-5,6-dihydro-[1,2,4]triazolo[4,3-a]pyrazin-7(8H)-yl)methanone]	51	51	–
Cc1cc(-c2nnc3n2CCN(C(=O)c2ccc(-c4cccs4)cc2)[C@@H]3C)n(C)n1 [Compound 28, (R)-(3-(1,3-dimethyl-1H-pyrazol-5-yl)-8-methyl-5,6-dihydro-[1,2,4]triazolo[4,3-a]pyrazin-7(8H)-yl)(4-(thiophen-2-yl)phenyl)methanone]	37	68	–
Cc1cccc(-c2nnc3n2CCN(C(=O)c2ccc(-c4ccccc4)cc2)[C@@H]3C)n1 [Compound 29, (R)-[1,1′-biphenyl]-4-yl(8-methyl-3-(6-methylpyridin-2-yl)-5,6-dihydro-[1,2,4]triazolo[4,3-a]pyrazin-7(8H)-yl)methanone]	18	23	–
Cc1cccc(-c2nnc3n2CCN(C(=O)c2ccc(-c4cccs4)cc2)[C@@H]3C)n1 [Compound 30, (R)-(8-methyl-3-(6-methylpyridin-2-yl)-5,6-dihydro-[1,2,4]triazolo[4,3-a]pyrazin-7(8H)-yl)(4-(thiophen-2-yl)phenyl)methanone]	11	10	Ki (human NK-3 receptor [2]; [4]): 10 nM; Ki (human NK1 receptor; [5]): 17.2 µM; Ki (human NK2 receptor; [6]): 5.93 µM
